Measured values reported in article PMC3639963, “A New Class of Small Molecule Inhibitor of BMP Signaling” (PLoS ONE, 2013).

What was measured:
Assay in all cases: Nanosyn kinase profiling
Format in all cases: biochemical
Details in all cases: read-out: Percentage inhibition; for inhibition at 0.1 µM: 0.1 µM inhibitor; for inhibition at 1 µM: 1 µM inhibitor
BRK = target: T1, BRK (Homo sapiens, UniProt Q13882)
T1 construct: purchased Nanosyn (enzymatic panel); SGC in-house recombinant human kinases (DSF panel); Invitrogen (ALK1-6)
Summary of the method: (§1)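 Percent inhibition of each kinase was measured with the inhibitor at 0.1 µM and at 1 µM, as part of a 200-kinase human selectivity panel.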

CK2 = target: T2, CK2 (Homo sapiens, UniProt P68400)
T2 construct: purchased Nanosyn (enzymatic panel); SGC in-house recombinant human kinases (DSF panel); Invitrogen (ALK1-6)
Summary of the method: as §1

DCAMKL2 = target: T3, DCAMKL2 (Homo sapiens, UniProt Q8N568)
T3 construct: purchased Nanosyn (enzymatic panel); SGC in-house recombinant human kinases (DSF panel); Invitrogen (ALK1-6)
T3 sequence (Q8N568 1-766): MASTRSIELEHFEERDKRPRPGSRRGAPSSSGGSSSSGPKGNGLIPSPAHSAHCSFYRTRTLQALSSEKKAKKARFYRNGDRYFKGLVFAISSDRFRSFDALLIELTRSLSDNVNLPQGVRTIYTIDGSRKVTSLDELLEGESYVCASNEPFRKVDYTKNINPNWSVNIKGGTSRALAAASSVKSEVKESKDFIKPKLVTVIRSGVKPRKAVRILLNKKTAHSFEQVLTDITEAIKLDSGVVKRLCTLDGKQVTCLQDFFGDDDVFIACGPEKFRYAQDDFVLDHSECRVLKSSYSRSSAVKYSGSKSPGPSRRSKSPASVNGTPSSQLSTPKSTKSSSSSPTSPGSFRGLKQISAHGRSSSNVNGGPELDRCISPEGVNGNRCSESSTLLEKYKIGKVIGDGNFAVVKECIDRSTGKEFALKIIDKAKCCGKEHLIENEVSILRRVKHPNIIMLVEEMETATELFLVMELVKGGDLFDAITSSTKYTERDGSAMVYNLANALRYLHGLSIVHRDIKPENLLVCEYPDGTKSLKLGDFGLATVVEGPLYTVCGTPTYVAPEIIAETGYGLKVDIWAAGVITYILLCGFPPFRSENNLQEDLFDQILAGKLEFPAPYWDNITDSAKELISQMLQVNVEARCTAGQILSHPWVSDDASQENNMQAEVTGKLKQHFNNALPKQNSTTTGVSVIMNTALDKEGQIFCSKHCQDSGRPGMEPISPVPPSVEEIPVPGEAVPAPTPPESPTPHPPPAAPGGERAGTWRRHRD
Summary of the method: as §1

JNK2 = target: T4, JNK2 (Homo sapiens, UniProt P45984)
T4 construct: purchased Nanosyn (enzymatic panel); SGC in-house recombinant human kinases (DSF panel); Invitrogen (ALK1-6)
Summary of the method: as §1

LRRK2 = target: T5, LRRK2 (Homo sapiens, UniProt Q5S007)
T5 construct: purchased Nanosyn (enzymatic panel); SGC in-house recombinant human kinases (DSF panel); Invitrogen (ALK1-6)
Summary of the method: as §1

NEK9 = target: T6, NEK9 (Homo sapiens, UniProt Q8TD19)
T6 construct: purchased Nanosyn (enzymatic panel); SGC in-house recombinant human kinases (DSF panel); Invitrogen (ALK1-6)
T6 sequence (Q8TD19 1-979): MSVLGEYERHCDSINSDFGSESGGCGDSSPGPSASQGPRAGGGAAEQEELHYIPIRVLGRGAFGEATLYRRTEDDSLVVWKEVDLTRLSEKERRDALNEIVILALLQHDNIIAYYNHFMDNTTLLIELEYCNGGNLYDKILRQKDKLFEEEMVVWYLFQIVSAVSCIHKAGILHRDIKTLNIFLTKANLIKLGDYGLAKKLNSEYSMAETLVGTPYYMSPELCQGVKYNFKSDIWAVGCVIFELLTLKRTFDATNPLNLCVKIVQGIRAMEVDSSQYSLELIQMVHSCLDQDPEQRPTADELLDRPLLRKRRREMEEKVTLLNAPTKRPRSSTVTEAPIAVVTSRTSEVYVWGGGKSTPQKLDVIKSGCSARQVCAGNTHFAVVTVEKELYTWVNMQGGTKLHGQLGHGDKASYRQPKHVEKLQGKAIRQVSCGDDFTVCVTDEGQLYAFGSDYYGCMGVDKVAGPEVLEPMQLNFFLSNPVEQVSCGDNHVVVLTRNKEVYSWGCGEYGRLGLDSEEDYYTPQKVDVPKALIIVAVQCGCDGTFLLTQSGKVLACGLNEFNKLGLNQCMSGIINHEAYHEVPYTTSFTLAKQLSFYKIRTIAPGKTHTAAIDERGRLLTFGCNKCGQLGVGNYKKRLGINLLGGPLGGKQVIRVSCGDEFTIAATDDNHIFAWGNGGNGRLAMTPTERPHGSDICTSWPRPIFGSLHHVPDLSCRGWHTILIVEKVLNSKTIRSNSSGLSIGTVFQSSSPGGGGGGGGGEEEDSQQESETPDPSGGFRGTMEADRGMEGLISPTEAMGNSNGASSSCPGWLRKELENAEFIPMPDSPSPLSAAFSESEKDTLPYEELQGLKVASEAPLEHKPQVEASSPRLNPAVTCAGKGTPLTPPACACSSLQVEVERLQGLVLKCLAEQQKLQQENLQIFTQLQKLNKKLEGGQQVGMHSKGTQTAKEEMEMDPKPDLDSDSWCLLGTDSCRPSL
Summary of the method: as §1

ROCK2 = target: T7, ROCK2 (Homo sapiens, UniProt O75116)
T7 construct: purchased Nanosyn (enzymatic panel); SGC in-house recombinant human kinases (DSF panel); Invitrogen (ALK1-6)
Summary of the method: as §1

TXK = target: T8, TXK (Homo sapiens, UniProt P42681)
T8 construct: purchased Nanosyn (enzymatic panel); SGC in-house recombinant human kinases (DSF panel); Invitrogen (ALK1-6)
T8 sequence (P42681 1-527): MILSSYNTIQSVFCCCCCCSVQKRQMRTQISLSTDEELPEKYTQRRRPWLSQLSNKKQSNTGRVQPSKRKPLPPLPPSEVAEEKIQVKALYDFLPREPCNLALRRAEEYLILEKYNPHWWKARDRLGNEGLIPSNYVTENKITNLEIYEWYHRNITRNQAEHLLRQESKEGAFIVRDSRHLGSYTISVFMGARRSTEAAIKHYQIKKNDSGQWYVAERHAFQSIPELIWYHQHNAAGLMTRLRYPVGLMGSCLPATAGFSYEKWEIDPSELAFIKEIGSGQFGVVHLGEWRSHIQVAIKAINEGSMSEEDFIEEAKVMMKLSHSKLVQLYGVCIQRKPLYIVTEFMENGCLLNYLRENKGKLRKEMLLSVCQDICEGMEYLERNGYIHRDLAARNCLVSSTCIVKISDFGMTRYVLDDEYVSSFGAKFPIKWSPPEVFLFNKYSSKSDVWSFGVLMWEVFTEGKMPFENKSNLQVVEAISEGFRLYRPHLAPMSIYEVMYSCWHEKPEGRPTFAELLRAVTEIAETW
Summary of the method: as §1

T2 sequence (P68400 whole entry): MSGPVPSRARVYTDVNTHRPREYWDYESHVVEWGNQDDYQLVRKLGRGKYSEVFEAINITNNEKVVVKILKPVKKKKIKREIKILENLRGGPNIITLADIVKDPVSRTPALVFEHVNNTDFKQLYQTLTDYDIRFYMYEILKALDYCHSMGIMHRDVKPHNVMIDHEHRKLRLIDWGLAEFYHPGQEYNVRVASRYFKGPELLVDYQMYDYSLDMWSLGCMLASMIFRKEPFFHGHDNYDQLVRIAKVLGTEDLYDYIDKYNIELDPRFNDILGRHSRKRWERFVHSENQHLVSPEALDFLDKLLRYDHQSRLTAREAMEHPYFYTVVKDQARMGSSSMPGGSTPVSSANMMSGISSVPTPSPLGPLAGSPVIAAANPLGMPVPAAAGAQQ
T2 sequence (P67870 whole entry partner): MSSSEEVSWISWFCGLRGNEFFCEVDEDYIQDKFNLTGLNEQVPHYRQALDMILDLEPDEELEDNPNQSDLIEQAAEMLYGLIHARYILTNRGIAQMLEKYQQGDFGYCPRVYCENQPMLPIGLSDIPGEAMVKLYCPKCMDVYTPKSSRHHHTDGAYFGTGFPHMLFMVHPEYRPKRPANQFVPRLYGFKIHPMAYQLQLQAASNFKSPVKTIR
T1 sequence (Q13882 whole entry): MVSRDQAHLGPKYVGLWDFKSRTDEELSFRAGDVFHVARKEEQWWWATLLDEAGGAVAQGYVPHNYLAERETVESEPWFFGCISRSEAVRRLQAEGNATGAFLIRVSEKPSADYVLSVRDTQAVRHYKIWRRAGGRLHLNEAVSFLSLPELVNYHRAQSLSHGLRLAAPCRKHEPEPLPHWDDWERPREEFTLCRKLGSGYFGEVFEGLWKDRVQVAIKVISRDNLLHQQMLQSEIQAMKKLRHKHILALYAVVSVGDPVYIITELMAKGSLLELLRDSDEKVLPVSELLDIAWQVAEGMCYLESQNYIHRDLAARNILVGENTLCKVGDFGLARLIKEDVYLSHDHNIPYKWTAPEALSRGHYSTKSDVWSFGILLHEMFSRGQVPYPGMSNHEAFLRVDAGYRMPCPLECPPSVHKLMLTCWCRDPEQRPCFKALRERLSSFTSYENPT
T5 sequence (Q5S007 whole entry): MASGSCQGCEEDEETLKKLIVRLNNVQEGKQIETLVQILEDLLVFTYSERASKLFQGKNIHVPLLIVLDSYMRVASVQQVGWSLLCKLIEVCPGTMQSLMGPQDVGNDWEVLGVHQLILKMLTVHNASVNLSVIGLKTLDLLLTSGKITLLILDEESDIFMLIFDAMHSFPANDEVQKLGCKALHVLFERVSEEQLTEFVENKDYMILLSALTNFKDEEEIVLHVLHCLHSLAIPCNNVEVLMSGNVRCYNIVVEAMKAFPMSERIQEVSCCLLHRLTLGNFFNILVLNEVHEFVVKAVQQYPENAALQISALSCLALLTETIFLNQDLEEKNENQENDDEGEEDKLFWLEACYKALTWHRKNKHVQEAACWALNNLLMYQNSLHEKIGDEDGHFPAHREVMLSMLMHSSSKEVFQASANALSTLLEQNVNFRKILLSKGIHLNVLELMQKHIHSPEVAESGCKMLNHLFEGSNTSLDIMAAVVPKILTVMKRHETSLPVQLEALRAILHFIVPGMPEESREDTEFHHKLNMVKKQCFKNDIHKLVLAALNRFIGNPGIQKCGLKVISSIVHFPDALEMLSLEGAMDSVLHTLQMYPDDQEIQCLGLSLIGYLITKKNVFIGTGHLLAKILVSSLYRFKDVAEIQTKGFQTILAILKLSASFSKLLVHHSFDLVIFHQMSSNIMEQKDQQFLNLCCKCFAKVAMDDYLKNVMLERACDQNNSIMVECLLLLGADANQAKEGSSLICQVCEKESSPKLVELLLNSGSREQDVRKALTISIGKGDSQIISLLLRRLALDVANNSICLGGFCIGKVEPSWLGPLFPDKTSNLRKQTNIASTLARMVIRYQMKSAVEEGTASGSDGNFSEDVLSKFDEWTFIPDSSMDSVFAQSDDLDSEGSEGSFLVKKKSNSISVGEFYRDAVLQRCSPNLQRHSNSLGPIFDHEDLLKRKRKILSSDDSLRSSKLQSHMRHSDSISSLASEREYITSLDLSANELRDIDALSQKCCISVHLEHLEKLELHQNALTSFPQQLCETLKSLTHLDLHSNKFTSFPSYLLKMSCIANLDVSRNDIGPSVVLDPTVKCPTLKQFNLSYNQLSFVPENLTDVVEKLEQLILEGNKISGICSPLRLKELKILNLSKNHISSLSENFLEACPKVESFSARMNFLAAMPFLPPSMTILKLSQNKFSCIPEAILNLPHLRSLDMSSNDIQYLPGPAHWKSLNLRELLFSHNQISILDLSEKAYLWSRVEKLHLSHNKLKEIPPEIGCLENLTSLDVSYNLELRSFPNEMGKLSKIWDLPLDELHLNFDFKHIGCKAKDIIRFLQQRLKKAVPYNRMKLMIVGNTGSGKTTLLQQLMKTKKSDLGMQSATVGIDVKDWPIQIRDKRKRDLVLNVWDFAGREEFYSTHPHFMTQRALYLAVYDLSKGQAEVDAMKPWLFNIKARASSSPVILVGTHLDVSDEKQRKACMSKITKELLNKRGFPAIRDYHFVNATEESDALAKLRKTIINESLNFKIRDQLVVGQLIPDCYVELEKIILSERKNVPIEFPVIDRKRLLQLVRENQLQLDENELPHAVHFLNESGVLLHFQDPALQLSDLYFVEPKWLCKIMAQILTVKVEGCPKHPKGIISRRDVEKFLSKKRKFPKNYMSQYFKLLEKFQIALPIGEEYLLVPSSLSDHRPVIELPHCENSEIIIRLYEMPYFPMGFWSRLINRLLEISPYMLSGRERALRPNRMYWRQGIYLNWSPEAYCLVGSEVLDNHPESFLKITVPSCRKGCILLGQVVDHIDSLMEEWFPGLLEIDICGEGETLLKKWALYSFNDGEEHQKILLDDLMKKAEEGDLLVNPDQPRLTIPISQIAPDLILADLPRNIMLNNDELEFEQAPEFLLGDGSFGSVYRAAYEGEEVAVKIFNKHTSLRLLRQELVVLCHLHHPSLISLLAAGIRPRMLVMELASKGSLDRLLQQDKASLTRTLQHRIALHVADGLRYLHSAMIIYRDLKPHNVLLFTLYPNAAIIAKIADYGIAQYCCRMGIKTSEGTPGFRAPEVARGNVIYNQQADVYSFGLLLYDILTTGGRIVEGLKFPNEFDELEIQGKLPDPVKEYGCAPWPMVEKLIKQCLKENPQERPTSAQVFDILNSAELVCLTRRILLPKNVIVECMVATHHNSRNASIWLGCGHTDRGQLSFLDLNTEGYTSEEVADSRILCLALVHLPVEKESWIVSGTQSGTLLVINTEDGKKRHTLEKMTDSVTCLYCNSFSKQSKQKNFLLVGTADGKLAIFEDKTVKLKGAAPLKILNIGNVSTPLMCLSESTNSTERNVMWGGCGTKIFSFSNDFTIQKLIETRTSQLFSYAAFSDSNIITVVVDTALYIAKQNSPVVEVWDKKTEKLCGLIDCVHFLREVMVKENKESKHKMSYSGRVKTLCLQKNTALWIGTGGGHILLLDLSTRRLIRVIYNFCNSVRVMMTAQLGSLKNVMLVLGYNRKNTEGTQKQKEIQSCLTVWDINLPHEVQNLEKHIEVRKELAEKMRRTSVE
T7 sequence (O75116 whole entry): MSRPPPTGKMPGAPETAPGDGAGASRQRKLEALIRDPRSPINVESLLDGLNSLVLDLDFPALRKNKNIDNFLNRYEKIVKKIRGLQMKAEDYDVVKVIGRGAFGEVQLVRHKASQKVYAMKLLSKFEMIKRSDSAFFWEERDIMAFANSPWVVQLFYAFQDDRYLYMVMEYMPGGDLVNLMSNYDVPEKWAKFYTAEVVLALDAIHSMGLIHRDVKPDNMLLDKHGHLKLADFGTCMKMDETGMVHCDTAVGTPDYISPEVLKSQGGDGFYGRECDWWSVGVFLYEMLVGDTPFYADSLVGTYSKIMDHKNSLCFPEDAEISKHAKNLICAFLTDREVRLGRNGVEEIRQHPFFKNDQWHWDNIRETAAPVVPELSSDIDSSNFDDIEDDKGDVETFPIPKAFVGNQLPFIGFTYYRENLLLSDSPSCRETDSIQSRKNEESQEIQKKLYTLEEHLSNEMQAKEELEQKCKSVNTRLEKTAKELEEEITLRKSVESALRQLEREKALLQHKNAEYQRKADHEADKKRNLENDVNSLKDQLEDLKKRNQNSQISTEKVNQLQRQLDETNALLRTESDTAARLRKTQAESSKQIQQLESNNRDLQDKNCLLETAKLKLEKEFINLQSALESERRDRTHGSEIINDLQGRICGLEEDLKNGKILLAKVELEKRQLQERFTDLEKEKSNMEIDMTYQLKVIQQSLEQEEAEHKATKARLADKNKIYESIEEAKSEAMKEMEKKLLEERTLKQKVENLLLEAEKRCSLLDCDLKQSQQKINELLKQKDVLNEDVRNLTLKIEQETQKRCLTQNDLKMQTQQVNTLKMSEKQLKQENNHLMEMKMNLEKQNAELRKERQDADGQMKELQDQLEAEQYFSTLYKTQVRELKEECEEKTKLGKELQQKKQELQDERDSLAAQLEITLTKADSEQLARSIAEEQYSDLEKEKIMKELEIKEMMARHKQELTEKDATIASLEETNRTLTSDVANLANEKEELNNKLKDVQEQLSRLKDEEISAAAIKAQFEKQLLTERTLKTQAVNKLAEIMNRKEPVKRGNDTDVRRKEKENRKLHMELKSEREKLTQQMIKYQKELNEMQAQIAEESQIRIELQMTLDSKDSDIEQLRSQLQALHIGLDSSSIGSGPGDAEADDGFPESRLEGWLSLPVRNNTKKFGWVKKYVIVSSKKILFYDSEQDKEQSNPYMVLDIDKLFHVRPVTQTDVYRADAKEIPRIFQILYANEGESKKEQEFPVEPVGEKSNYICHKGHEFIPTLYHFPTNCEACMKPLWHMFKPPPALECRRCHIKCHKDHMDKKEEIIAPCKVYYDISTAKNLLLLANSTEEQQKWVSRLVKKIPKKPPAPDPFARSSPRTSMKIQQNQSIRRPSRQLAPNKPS

SMILES	inhibition at 0.1 µM (BRK) [%]	inhibition at 1 µM (BRK) [%]	inhibition at 0.1 µM (CK2) [%]	inhibition at 1 µM (CK2) [%]	inhibition at 0.1 µM (DCAMKL2) [%]	inhibition at 1 µM (DCAMKL2) [%]	inhibition at 0.1 µM (JNK2) [%]	inhibition at 1 µM (JNK2) [%]	inhibition at 0.1 µM (LRRK2) [%]	inhibition at 1 µM (LRRK2) [%]	inhibition at 0.1 µM (NEK9) [%]	inhibition at 1 µM (NEK9) [%]	inhibition at 0.1 µM (ROCK2) [%]	inhibition at 1 µM (ROCK2) [%]	inhibition at 0.1 µM (TXK) [%]	inhibition at 1 µM (TXK) [%]
COc1cc(-c2cc(-c3cccc(O)c3)cnc2N)cc(OC)c1OC [K02288, 3-[6-amino-5-(3,4,5-trimethoxy-phenyl)-pyridin-3-yl]-phenol]	13	66	6.2	2.8	-2	2.3	0.9	0	7.1	27	5.3	-2	-1	0.8	2.8	36
c1ccc2c(-c3cnn4cc(-c5ccc(N6CCNCC6)cc5)cnc34)ccnc2c1 [LDN-193189]	13	57	0.7	4.2	0.8	3.4	3.9	1.3	8.7	27	1.9	6.6	1.4	1.5	4.1	16
